Assay results taken from patent publication US10966426B2, “Herbicidal compositions comprising phenylpyrimidines” (BASF SE, priority 2016, dated 2021).
Several values for one entry are separate records, joined by “and”; a condition that tells them apart may be missing. Equal entries are not always repeated.

What was measured:
Assay type in all cases: in vivo
Lolium multiflorum = test: greenhouse post-emergence treatment, LOLMU
How it was run: (§1)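 Seeds sown per species in loamy sand substrate (about 3.0% humus); some raised separately and transplanted shortly before treatment. Treatments applied in water post-emergence, plants held at 10-25° C. or 20-35° C. by species, then scored after 2 to 4 weeks, where 100 means total kill and 0 no damage.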

Avena fatua = test: greenhouse pre-emergence treatment, AVEFA
How it was run: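 Damage rated on 0 to 100 scale (0 = normal growth, 100 = no emergence or total above-ground kill) after 2-4 weeks at species-dependent 10-25° C or 20-35° C. Seeds sown per species in loamy sand, ~3.0% humus, treated right after sowing with aqueous spray of single actives or 10% emulsion-concentrate mixtures, then hooded; additive expectation by Colby.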

Setaria viridis = test: greenhouse post-emergence treatment, SETVI
How it was run: as §1

Alopecurus myosuroides = test: greenhouse post-emergence treatment, ALOMY
How it was run: as §1

Matricaria chamomilla = test: greenhouse post-emergence treatment, MATCH
How it was run: (§2)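 Foliar application to greenhouse-grown plants 3–15 cm tall in humus-containing loamy sand; response assessed on a 0–100 scale after 2–4 weeks, with Colby's E=X+Y−(X·Y/100) as the additive expectation.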

Polygonum convolvulus = test: greenhouse post-emergence treatment, POLCO
How it was run: as §2

Poa annua = test: greenhouse post-emergence treatment, POAAN
How it was run: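 Plants were grown in loamy sand with about 3.0% humus to 3–15 cm height, then sprayed with actives formulated as 10% by weight emulsion concentrates in water. Held at 10-25° C. or 20-35° C. by species for 2 to 4 weeks; damage scored 0 (none) to 100 (complete destruction).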

[1] = 20 DAT, Ex. 26 solo 62.5 gai/ha

Measured: % activity

COC(=O)c1nc(C2CC2)ncc1-c1ccc(F)cc1Cl [Ex. 26]
0%: Lolium multiflorum; Ex. 26 solo, 125 gai/ha, 20 DAT, LOLMU | Lolium multiflorum; LOLMU, 21 DAT, solo Ex. 26 62.5 gai/ha | Setaria viridis; [1] | Setaria viridis; 21 DAT, Ex. 26 solo 125 gai/ha | Setaria viridis; 21 DAT, Ex. 26 solo 250 gai/ha | Setaria viridis; Ex. 26 solo 62.5 gai/ha, 20 DAT, SETVI (pyridate table) | Setaria viridis; Ex. 26 solo 62.5 gai/ha, 20 DAT, SETVI (pyroxsulam table) | Setaria viridis; Ex. 26 solo 125 gai/ha, 20 DAT, SETVI (pyroxsulam table) | Matricaria chamomilla; [1] | Matricaria chamomilla; 20 DAT, Ex. 26 solo 125 gai/ha | Matricaria chamomilla; 20 DAT, Ex. 26 solo 250 gai/ha | Matricaria chamomilla; 20 DAT, MATCH, Ex. 26 solo 62.5 gai/ha | Matricaria chamomilla; 20 DAT, MATCH, Ex. 26 solo 125 gai/ha | Matricaria chamomilla; 20 DAT, MATCH, Ex. 26 solo 250 gai/ha | Matricaria chamomilla; 21 DAT, Ex. 26 solo 250 gai/ha | Matricaria chamomilla; Ex. 26 solo 62.5 gai/ha, 20 DAT, MATCH (pyridate table) | Matricaria chamomilla; Ex. 26 solo 62.5 gai/ha, 20 DAT, MATCH (pyroxsulam table) | Matricaria chamomilla; Ex. 26 solo 125 gai/ha, 20 DAT, MATCH (pyridate table) | Matricaria chamomilla; Ex. 26 solo 125 gai/ha, 20 DAT, MATCH (pyroxsulam table) | Matricaria chamomilla; Ex. 26 solo 250 gai/ha, 20 DAT, MATCH (pyridate table) | Matricaria chamomilla; Ex. 26 solo 250 gai/ha, 21 DAT, MATCH | Matricaria chamomilla; Ex. 26 solo, 125 gai/ha, 20 DAT, MATCH | Matricaria chamomilla; Ex. 26 solo, 250 gai/ha, 20 DAT, MATCH | Matricaria chamomilla; MATCH, 21 DAT, solo Ex. 26 62.5 gai/ha | Matricaria chamomilla; MATCH, Ex. 26 solo 62.5 gai/ha, 20 DAT | Polygonum convolvulus; 21 DAT, Ex. 26 solo 125 gai/ha | Polygonum convolvulus; Ex. 26 solo 62.5 gai/ha, 21 DAT, POLCO | Polygonum convolvulus; Ex. 26 solo 125 gai/ha, 21 DAT, POLCO | Polygonum convolvulus; POLCO, 21 DAT, solo Ex. 26 62.5 gai/ha
25%: Lolium multiflorum; Ex. 26 solo, 250 gai/ha, 20 DAT, LOLMU | Setaria viridis; Ex. 26 solo 250 gai/ha, 20 DAT, SETVI (pyridate table)
10%: Lolium multiflorum; Ex. 26 solo 125 gai/ha, 21 DAT, LOLMU | Setaria viridis; Ex. 26 solo 250 gai/ha, 20 DAT, SETVI (pyroxsulam table) | Setaria viridis; Ex. 26 solo, 125 gai/ha, 21 DAT, SETVI | Setaria viridis; SETVI, 21 DAT, solo Ex. 26 62.5 gai/ha | Setaria viridis; SETVI, 21 DAT, solo Ex. 26 125 gai/ha
45%: Avena fatua; AVEFA, 20 DAT, solo Ex. 26 62.5 gai/ha (Table X68)
65% and 70%: Avena fatua; 20 DAT, AVEFA, Ex. 26 solo 125 gai/ha
25% and 20%: Avena fatua; Ex. 26 solo, 31.25 gai/ha, 20 DAT, AVEFA
35%: Lolium multiflorum; Ex. 26 solo 125 gai/ha, 20 DAT, LOLMU (pyroxsulam table) | Polygonum convolvulus; Ex. 26 solo, 125 gai/ha, 21 DAT, POLCO | Polygonum convolvulus; POLCO, 21 DAT, solo Ex. 26 125 gai/ha | Poa annua; Ex. 26 solo 62.5 gai/ha, 21 DAT, POAAN
30%: Lolium multiflorum; Ex. 26 solo, 250 gai/ha, 21 DAT, LOLMU | Lolium multiflorum; LOLMU, 21 DAT, solo Ex. 26 250 gai/ha | Matricaria chamomilla; Ex. 26 solo 250 gai/ha, 20 DAT, MATCH (pyroxsulam table) | Polygonum convolvulus; 20 DAT, Ex. 26 solo 250 gai/ha | Polygonum convolvulus; Ex. 26 solo 62.5 gai/ha, 20 DAT, POLCO | Polygonum convolvulus; Ex. 26 solo, 250 gai/ha, 20 DAT, POLCO | Poa annua; POAAN, 21 DAT, solo Ex. 26 62.5 gai/ha
15%: Lolium multiflorum; Ex. 26 solo, 125 gai/ha, 21 DAT, LOLMU | Lolium multiflorum; LOLMU, 21 DAT, solo Ex. 26 125 gai/ha | Setaria viridis; Ex. 26 solo, 250 gai/ha, 21 DAT, SETVI
73%: Alopecurus myosuroides; Ex. 26 solo 125 gai/ha, 20 DAT, ALOMY (pinoxaden table)
75%: Avena fatua; AVEFA, 20 DAT, solo Ex. 26 125 gai/ha | Avena fatua; AVEFA, Ex. 26 solo 250 gai/ha, 20 DAT | Alopecurus myosuroides; 20 DAT, ALOMY, Ex. 26 solo 125 gai/ha | Alopecurus myosuroides; 20 DAT, ALOMY, Ex. 26 solo 250 gai/ha | Alopecurus myosuroides; 21 DAT, Ex. 26 solo 250 gai/ha | Alopecurus myosuroides; ALOMY, Ex. 26 solo 250 gai/ha, 20 DAT | Alopecurus myosuroides; Ex. 26 solo 250 gai/ha, 20 DAT, ALOMY (pyridate table) | Poa annua; 21 DAT, Ex. 26 solo 250 gai/ha
70%: Avena fatua; 21 DAT, AVEFA, Ex. 26 solo 250 gai/ha | Alopecurus myosuroides; Ex. 26 solo 125 gai/ha, 20 DAT, ALOMY (pyridate table) | Poa annua; 20 DAT, Ex. 26 solo 250 gai/ha | Poa annua; Ex. 26 solo, 250 gai/ha, 20 DAT, POAAN | Poa annua; POAAN, Ex. 26 solo 125 gai/ha, 20 DAT
75% and 70%: Alopecurus myosuroides; ALOMY, Ex. 26 solo 125 gai/ha, 20 DAT | Poa annua; 20 DAT, POAAN, Ex. 26 solo 125 gai/ha
80%: Poa annua; 20 DAT, POAAN, Ex. 26 solo 250 gai/ha
85% and 80%: Polygonum convolvulus; 20 DAT, POLCO, Ex. 26 solo 125 gai/ha
65%: Lolium multiflorum; LOLMU, Ex. 26 solo 250 gai/ha, 20 DAT | Avena fatua; 20 DAT, Ex. 26 solo 125 gai/ha | Avena fatua; AVEFA, 20 DAT, solo Ex. 26 125 gai/ha (Table X68) | Avena fatua; AVEFA, Ex. 26 solo 125 gai/ha, 20 DAT | Alopecurus myosuroides; 20 DAT, ALOMY, Ex. 26 solo 62.5 gai/ha | Alopecurus myosuroides; 21 DAT, Ex. 26 solo 125 gai/ha | Polygonum convolvulus; 20 DAT, POLCO, Ex. 26 solo 62.5 gai/ha | Poa annua; 21 DAT, Ex. 26 solo 125 gai/ha
5%: Polygonum convolvulus; Ex. 26 solo, 125 gai/ha, 20 DAT, POLCO
90%: Polygonum convolvulus; Ex. 26 solo 125 gai/ha, 20 DAT, POLCO
60%: Lolium multiflorum; Ex. 26 solo 250 gai/ha, 20 DAT, LOLMU (pyridate table) | Poa annua; POAAN, Ex. 26 solo 250 gai/ha, 20 DAT
85%: Polygonum convolvulus; Ex. 26 solo, 250 gai/ha, 21 DAT, POLCO | Polygonum convolvulus; POLCO, 21 DAT, solo Ex. 26 250 gai/ha
20%: Setaria viridis; Ex. 26 solo 125 gai/ha, 20 DAT, SETVI (pyridate table) | Matricaria chamomilla; Ex. 26 solo, 250 gai/ha, 21 DAT, MATCH
55%: Lolium multiflorum; Ex. 26 solo 250 gai/ha, 20 DAT, LOLMU (pyroxsulam table) | Avena fatua; AVEFA, 20 DAT, solo Ex. 26 62.5 gai/ha | Avena fatua; Ex. 26 solo, 62.5 gai/ha, 20 DAT, AVEFA
40%: Avena fatua; AVEFA, Ex. 26 solo 62.5 gai/ha, 20 DAT | Alopecurus myosuroides; Ex. 26 solo 62.5 gai/ha, 21 DAT, ALOMY | Poa annua; Ex. 26 solo, 125 gai/ha, 20 DAT, POAAN | Poa annua; Ex. 26 solo, 125 gai/ha, 21 DAT, POAAN
55% and 35%: Lolium multiflorum; LOLMU, Ex. 26 solo 125 gai/ha, 20 DAT
